From ChEMBL document CHEMBL5729119, “Aliphatic acid amide derivative” (2022) come the findings set out here.

Some results are limits rather than exact numbers.

The target in assay [1] is 5-hydroxytryptamine receptor 7 (Homo sapiens, UniProt P34969). The assay can be described thus: Binding Activity Assay: Human 5-HT2A Receptor, Human 5-HT7 Receptor, and Human D2 Receptor: Binding affinity of the present compound for human 5-HT2A receptor, human 5-HT7 receptor, and human D2 receptor was measured by the following procedures.CHO cell membrane fraction in which human 5-HT2A receptor, human 5-HT7 receptor, or human D2 receptor was expressed was purchased from PerkinElmer, Inc. ….
Description: (§1) Each mixture was incubated at room temperature for 60 minutes. Non specific binding to receptors was obtained from a competitive binding test in the presence of 10 μmol/L 8-OH-DPAT, 10 μmol/L Mianserin, or 10 μmol/L Spiperone, respectively.

Another assay has as its target D(2) dopamine receptor (Homo sapiens, UniProt P14416). Described as above.

5-hydroxytryptamine receptor 7, sequence (P34969 whole entry): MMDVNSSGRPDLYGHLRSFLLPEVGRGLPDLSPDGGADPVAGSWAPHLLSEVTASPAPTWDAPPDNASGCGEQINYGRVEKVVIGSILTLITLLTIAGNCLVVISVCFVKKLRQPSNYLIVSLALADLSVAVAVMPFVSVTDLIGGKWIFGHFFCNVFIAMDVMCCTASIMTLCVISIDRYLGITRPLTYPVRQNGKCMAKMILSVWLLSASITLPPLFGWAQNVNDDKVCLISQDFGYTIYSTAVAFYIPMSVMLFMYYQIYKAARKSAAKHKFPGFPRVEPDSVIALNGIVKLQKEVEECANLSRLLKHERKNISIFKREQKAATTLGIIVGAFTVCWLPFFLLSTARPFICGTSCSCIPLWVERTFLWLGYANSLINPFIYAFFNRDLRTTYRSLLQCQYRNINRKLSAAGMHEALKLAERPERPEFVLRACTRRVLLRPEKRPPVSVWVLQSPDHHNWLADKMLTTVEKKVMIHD
D(2) dopamine receptor, sequence (P14416 whole entry): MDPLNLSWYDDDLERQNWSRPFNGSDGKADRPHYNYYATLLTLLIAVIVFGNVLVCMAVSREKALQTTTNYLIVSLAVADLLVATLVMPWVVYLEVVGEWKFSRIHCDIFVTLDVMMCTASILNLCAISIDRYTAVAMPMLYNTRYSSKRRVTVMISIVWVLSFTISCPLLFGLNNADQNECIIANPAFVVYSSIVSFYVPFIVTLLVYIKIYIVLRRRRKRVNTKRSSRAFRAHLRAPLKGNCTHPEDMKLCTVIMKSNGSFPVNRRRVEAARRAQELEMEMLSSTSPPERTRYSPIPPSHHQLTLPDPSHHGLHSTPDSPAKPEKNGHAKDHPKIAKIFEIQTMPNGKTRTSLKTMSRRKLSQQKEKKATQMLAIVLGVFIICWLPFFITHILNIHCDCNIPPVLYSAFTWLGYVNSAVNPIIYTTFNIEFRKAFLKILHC
Description for D(2) dopamine receptor: as §1

Regarding `CCN(CCN1CCC(c2noc3cc(F)ccc23)CC1)C(=O)CCO`, the figures for the Ki (in assay [1]; at D(2) dopamine receptor) were 4.9 nM and 155 nM, respectively.
Consider `CCN(CCN1CCC(c2noc3cc(F)c(C)cc23)CC1)C(=O)[C@H](C)O`, for which the Ki (commonly a measure of affinity in units of concentration, obtained from inhibition or displacement) in assay [1] was 20.3 nM; at D(2) dopamine receptor, greater than 1000 nM.
As for `CCN(CCN1CCC(c2noc3cc(F)ccc23)CC1)C(=O)C1(O)CC1`, the Ki in assay [1] is 1.1 nM; on D(2) dopamine receptor, less than 100 nM.
